# Source: US10758549B2, “Compositions of obeticholic acid and methods of use” (Intercept Pharmaceuticals, Inc., priority 2015, dated 2020)
# How the values were obtained:
# Surface area by BET = assay type: physicochemical
# Method: The impact of jet-milling on API particle size and surface area is detailed in Table 4-1 and Table 4-2, respectively. Surface area was tested per a BET (Brunauer, Emmett, and Teller theory). The BET method for analyzing surface area is based on adsorption of gas on a surface. The amount of gas adsorbed at a given pressure allows a determination of the surface area.
# [1] = Solubility of OCA in biologically relevant media at 37° C.; assay type: physicochemical; conditions: for solubility: physiologically relevant dissolution media
# Text: Solubility Studies of OCA in Biological Media.
# pKa = assay type: physicochemical
# PBC patients = test: Example 7: 12-week placebo-controlled OCA monotherapy study (10 mg, 50 mg) in PBC; assay type: in vivo, human; conditions: for ALP Change from Baseline to Day 85/ET, Mean / ALP Level at Day 85/ET, Mean / ALP Level at Day 85/ET, Median / Percent Change in ALP from Baseline to EOS, Mean (SD) / Percent Change in ALP from Baseline to EOS, Median / GGT level at Day 85/ET, mean (SD): ITT
# Method: This example describes a study of two doses of OCA (10 mg and 50 mg) vs. placebo for a period of 12 weeks (85 days). The study was completed by 48 patients and PK data are available for 34 patients. All patients returned to the study site for 4 visits (Day 15, Day 29, Day 57, and Day 85) for evaluations of efficacy, safety, tolerability, and compliance with investigational product.
# Key Exclusion Criteria • 1. The following drugs were contraindicated: ursodeoxycholic acid (UDCA), colchicine, methotrexate, azathioprine, or systemic corticosteroids • 2. Conjugated bilirubin>2×ULN; ALT or AST>5×ULN and serum creatinine>133 μmol/L (1.5 mg/dL) • 3. History or presence of hepatic decompensation • 4. History of presence of concomitant liver diseases such as Hepatitis B or C; HIV; primary sclerosing cholangitis, alcoholic liver disease, definite autoimmune liver disease or biopsy proven nonalcoholic steatohepatitis (NASH).
# The percent change (%) in serum ALP from Baseline to End of Study (EOS) was monitored. The baseline value was the mean of the pretreatment screening and day 0 evaluations. The EOS value was Day 85/ET or the last observed ALP value on treatment.
# Absolute changes in serum ALP levels were monitored from Baseline to Day 15, Day 29, Day 57, Day 85/ET and Follow-Up (Day 99). The percentage of patients was calculated who met the definition of PBC responder criteria applying the Paris I, Toronto I, Toronto II, Toronto III, Toronto IV, Mayo II, and Barcelona disease prognostic risk criteria at Day 85/ET. Each patient was tested for absolute and percent change in serum aspartate aminotransferase (AST), alanine aminotransferase (ALT), gamma-glutamyl transferase (GGT), and conjugated (direct) bilirubin values from Baseline to Day 15, Day 29, Day 57, Day 85/ET and Follow-Up (Day 99).
# patients with NASH = test: Example 12: double-blind study of daily 25 mg OCA in NASH, high risk subgroup; assay type: in vivo, human; conditions: week 72, 25 mg OCA daily
# Method: This example describes a clinical, double-blind study examining the effect of daily 25 mg OCA on nonalcoholic steatohepatitis (NASH). OCA lead to biopsy proven improvements in liver fibrosis. Patients with NASH who have elevated NAFLD activity scores (NAS) and fibrosis are at a higher risk of progression to cirrhosis and liver related mortality.
# The high risk subgroup was defined as patients with a baseline NAS≥4, baseline fibrosis stage 2 or 3 or baseline fibrosis stage 1 with a comorbidity (type 2 diabetes, BMI≥30 kg/m^2 or ALT≥60 U/L) (OCA n=114; Placebo n=112). The Fibrosis-4 (FIB-4), the aspartate transaminase to platelet ratio (APRI), and the NAFLD fibrosis score (NFS) were all examined between baseline through 72 weeks of treatment and for an additional 24 weeks of follow up.
# [2] = normal hepatic function, Fixed; cited from earlier work
smiles,measurement,setting,value
"CC[C@H]1[C@@H](O)[C@@H]2[C@H](CC[C@]3(C)[C@@H]([C@H](C)CCC(=O)O)CC[C@@H]23)[C@@]2(C)CC[C@@H](O)C[C@@H]12 [OCA, 3α,7α-dihydroxy-6α-ethyl-5β-cholan-24-oic acid]",surface area increase after jet-milling,Surface area by BET,approximately 3 fold
same,USP Solubility Rating,[1]; pH 1.2 (0.1N HCl),Practically insoluble
same,Solubility (mg/mL),"[1]; pH 1.2 (0.1N HCl), 37° C.",<LOQ
same,USP Solubility Rating,[1]; pH 1.2 (FaSSGF),Practically insoluble
same,Solubility (mg/mL),"[1]; pH 1.2 (FaSSGF), 37° C.",<LOQ
same,USP Solubility Rating,[1]; pH 4.5,Practically insoluble
same,Solubility (mg/mL),"[1]; pH 4.5, 37° C.",<LOQ
same,USP Solubility Rating,[1]; pH 5.0 (FeSSIF),Freely soluble
same,increase in OCA solubility,[1]; pH 5.0 with taurocholate and lecithin (FeSSIF) vs. pH 5.1 acetate buffer alone,35 fold
same,USP Solubility Rating,[1]; pH 6.5 (FaSSIF),Freely soluble
same,USP Solubility Rating,[1]; pH 6.8,Freely soluble
same,USP Solubility Rating,[1]; pH 6.8 with surfactant,Freely soluble
same,solubility,"[1]; aqueous buffer, pH 6.8 (proposed dissolution medium, sodium phosphate dibasic), 37° C.",220 µg/mL
same,solubility,"[1]; aqueous with cosolvent or surfactant or cyclodextrin, pH 6.8 with surfactant (polysorbate 80), 37° C.",590 µg/mL
same,solubility,"[1]; pH 5.0 (FeSSIF), 37° C.",820 µg/mL
same,solubility,"[1]; pH 6.5 (FaSSIF), 37° C.",640 µg/mL
same,pKa,pKa,4.82
same,mean change in LDL-C at Day 85/ET,PBC patients; OCA 10 mg,+0.10 (0.58) mmol/L
same,"ALP Change from Baseline to Day 85/ET, Mean",PBC patients; OCA 10 mg (n = 20),−233.5 U/L
same,"ALP Level at Day 85/ET, Mean",PBC patients; OCA 10 mg (n = 20),228.1 U/L
same,"ALP Level at Day 85/ET, Median",PBC patients; OCA 10 mg (n = 20),196.5 U/L
same,"Percent Change in ALP from Baseline to EOS, Mean (SD)",PBC patients; OCA 10 mg (n = 20),−44.5 (24.4) %
same,"Percent Change in ALP from Baseline to EOS, Median",PBC patients; OCA 10 mg (n = 20),−53.9%
same,"GGT level at Day 85/ET, mean (SD)","PBC patients; OCA 10 mg, baseline 653 (370) U/L",184 (203) U/L
same,"HDL-C at end of treatment (ET), mean (SD)","PBC patients; OCA 10 mg, baseline 1.73 (0.45) mmol/L",1.57 (0.46) mmol/L
same,"AST level at Day 85/ET, mean (SD)","PBC patients; OCA 10 mg, baseline 67 (33) U/L",54 (40) U/L
same,"ALT level at Day 85/ET, mean (SD)","PBC patients; OCA 10 mg, baseline 86 (44) U/L",54 (41) U/L
same,mean change in LDL-C at Day 85/ET,PBC patients; OCA 50 mg,+0.23 (0.52) mmol/L
same,"ALP Change from Baseline to Day 85/ET, Mean",PBC patients; OCA 50 mg (n = 16),−161.3 U/L
same,"ALP Level at Day 85/ET, Mean",PBC patients; OCA 50 mg (n = 16),269.8 U/L
same,"ALP Level at Day 85/ET, Median",PBC patients; OCA 50 mg (n = 16),197.5 U/L
same,"Percent Change in ALP from Baseline to EOS, Mean (SD)",PBC patients; OCA 50 mg (n = 16),−37.6 (21.0) %
same,"Percent Change in ALP from Baseline to EOS, Median",PBC patients; OCA 50 mg (n = 16),−37.2%
same,"GGT level at Day 85/ET, mean (SD)","PBC patients; OCA 50 mg, baseline 455 (418) U/L",202 (300) U/L
same,"HDL-C at end of treatment (ET), mean (SD)","PBC patients; OCA 50 mg, baseline 1.95 (0.55) mmol/L",1.86 (0.56) mmol/L
same,"AST level at Day 85/ET, mean (SD)","PBC patients; OCA 50 mg, baseline 66 (29) U/L",56 (28) U/L
same,"ALT level at Day 85/ET, mean (SD)","PBC patients; OCA 50 mg, baseline 71 (38) U/L",49 (29) U/L
same,dropout rate,"PBC patients; OCA 50 mg, early in treatment (<1 month)",44%
same,"ALP reduction, on average","PBC patients; each OCA dose (10 mg and 50 mg monotherapy), early stage PBC",approximately 40%
same,APRI OCA-Placebo LS Mean change,"patients with NASH; 95% CI=[−0.32, −0.15]",−0.23
same,NFS OCA-Placebo LS Mean change,"patients with NASH; 95% CI=[−0.45, −0.10]",−0.28
same,FIB-4 OCA-Placebo LS Mean change,"patients with NASH; 95% CI=[−0.47, −0.19]",−0.33
same,t13: OCA transport rate from sinusoidal space to liver,[2],1.62 h⁻¹
